Measured values: patent publication US20160312284A1, “SELECT SINGLE NUCLEOTIDE POLYMORPHISMS PREDICTIVE OF RESPONSE TO GLATIRAMER ACETATE” (Teva Pharmaceutical Industries, Ltd., priority 2015, published 2016)

Key:
[1] = tested on: Relapsing-Remitting Multiple Sclerosis (RR-MS) patients; assay: FORTE phase 3 trial (two doses of GA): response categories and ARR by predictive model; type: in vivo, human
Excerpt: As used herein, “FORTE” is a phase 3 clinical trial entitled “Clinical Trial Comparing Treatment of Relapsing-Remitting Multiple Sclerosis (RR-MS) With Two Doses of Glatiramer Acetate (GA).” The FORTE trial has the ClinicalTrials.gov Identifier NCT00337779 and additional information, including study results can be found at clinicaltrials.gov/ct2/show/NCT00337779.
(§1) Response definitions were received from patients from two large glatiramer acetate clinical trial cohorts (GALA, FORTE) and patients were categorized as responder, non-responder, extreme-responder, or extreme non-responder according to the criteria set forth in Table 1.
(§2) To identify genetic markers associated with high response to Copaxone® comprising the following characteristics: (1) high response as measured by ARR reductions, (2) predictive, not prognostic, markers: associated with response only in Copaxone®-treated patients, and not in the placebo group, (3) markers that are confirmed in an independent cohort, and (4) a subset of GALA and FORTE studies' patients with clarly defined response phenotypes (high responders versus low responders) (FIG. 6) Patient DNA samples were genotyped for 4.3 million genetic variants (Illumina HumanOmni5 array).
(§3) Regression analysis was applied, with the threshold for distinguishing responders from non-responders was selected by analysis of receiver-operator curves. Intermediate responders were genotyped by either Illumina 5M array or focused taqman-based SNP genotyping and Sanger sequencing.

[2] = tested on: genotyped patients of the GALA and FORTE cohorts; assay: Combined GALA and FORTE cohorts: patient responses predicted by preliminary predictive model (model 3, threshold 0.71); type: in vivo, human
Procedure: A predictive model was generated based on the 11 SNPs shown in tables 32 and 33 and the two Clinical co-variants shown in table 23.
Receiver Operating Characteristic (ROC) analysis was performed using the actual value (case or control) and predicted value for each sample from the multi-marker regression model (FIG. 1). For these preliminary analyses, two risk groups were defined using the predicted values from the multi-marker regression model. The predictive threshold value was set at 0.71 (termed “model 3”) based on a variety of factors after consultation with the Teva team and Teva MS clinical experts.
Ultimately, a threshold that best differentiated between responders and non-responders (minimum positive predictive value of 90% or higher) (FIG. 2), while maximizing the number of predicted responders (predicted responders >60%) (FIG. 3) was selected. This threshold also coincided with the lowest p-value of all the thresholds examined (Chi square p-value 6.1×10^−46, odds ratio 19.9) (FIG. 4). The positive predictive value (% of all predicted responders to be true responders) was 91.1%, sensitivity (% of all true responders detected) was 80.2%; specificity (% of all true non-responders classified as non-responders) was 83.1%; and the negative predictive value ([…]) was 65.9%.
While 40% of patients were classified as “predicted non-responders” with an overall response rate of 34% (FIG. 5).

RRMS subjects = details: largest controlled study, GA 20 mg; cited from earlier work
[3] = tested on: Subjects With Relapsing-Remitting Multiple Sclerosis (RRMS); assay: GALA phase 3 trial (GA 40 mg three times a week vs placebo): response categories and ARR by predictive model; type: in vivo, human
Procedure: As used herein, “GALA” is a phase 3 clinical trial entitled “A Study in Subjects With Relapsing-Remitting Multiple Sclerosis (RRMS) to Assess the Efficacy, Safety and Tolerability of Glatiramer Acetate (GA) Injection 40 mg Administered Three Times a Week Compared to Placebo (GALA).” The GALA trial has the ClinicalTrials.gov Identifier NCT01067521, and additional information about the trial can be found at clinicaltrials.gov/ct2/show/NCT01067521.
as §1, §2, §3

[4] = change in ARR < -1 and new T2 lesions = 0 and relapse free
[5] = change in ARR >= 0 and new T2 lesions >= 1
[6] = change in ARR from previous 2 years < -1
[7] = change in ARR from previous 2 years >= 0

## Glatiramer acetate
[1]; [4]
  Extreme Responders (% of cohort): (16%)
[1]; [5]
  Extreme Non-Responders (% of cohort): (6%)
[1]; [6]
  Responders (% of cohort): (36%)
[1]; [7]
  Non-Responders (% of cohort): (11%)
[2]; 68% vs. 91%
  improvement in response rate, predicted responders vs overall cohort: 34%
[2]; P<10^-40
  improved response rate, predicted responders vs predicted non-responders: 2.7 fold
[2]; human, in vivo
  ARR reduced (improved), predicted responders vs overall patient cohort: 60%
  nrelapse reduced (improved), predicted responders vs overall patient cohort: 58%
[2]; p-value 0.00095
  EDSS progression delayed (improved), predicted responders vs predicted non-responders: 72%
[2]; p-value 0.043
  T1 enhancing lesions at month 12 reduced (improved), predicted responders vs predicted non-responders: 47%
[2]; p-value 0.08
  reduced EDSS progression, predicted responders vs overall cohort: 49%
[2]; p-value 2.2×10^-25
  ARR reduced (improved), predicted responders vs predicted non-responders: 80%
[2]; p-value 7.70×10^-32
  nrelapse reduced (improved), predicted responders vs predicted non-responders: 78%
[2]; predicted non-responders (40% of patients)
  overall response rate: 34%
RRMS subjects
  relapse rate reduced vs placebo: 32%
[3]; [4]
  Extreme Responders (% of cohort): (8.5%)
[3]; [5]
  Extreme Non-Responders (% of cohort): (10%)
[3]; [6]
  Responders (% of cohort): (26%)
[3]; [7]
  Non-Responders (% of cohort): (16%)
